Measurements published in patent publication US8987502B2, “Oleanolic acid amidate derivatives, preparation methods and uses thereof” (Hangzhou Bensheng Pharmaceutical Co., Ltd., priority 2011, dated 2015).
≈ marks a conversion by molar mass, not a printed value.

Key:
RPMI8226 = test: MTT multiple myeloma cell proliferation inhibition, RPMI8226; type: cell-based; details: Homo sapiens, RPMI-8226; for inhibition at 16 µg/mL: RPMI8226, 16 μg/mL compound, 72 h, read-out: IR (inhibition rate); for IC50: RPMI8226, 72 h, MTT
Method: Multiple myeloma cell lines: RPMI8226 (multiple myeloma), purchased from Fuxiang Bio-tech Co. Ltd., Shanghai, China.
(§1) Obtaining 6000 well-growing leukemia cells and inoculating them into wells of a 96-well cell culture plate. The culture medium is the 1640 cell culture medium containing 10% fetal bovine serum. After adding the amidated oleanolic acid derivatives of different concentrations and mixing uniformly, placing the plate in a carbon dioxide cell incubator (5% CO2) at 37° C. and incubated for 72 hours. Then the relative number of viable cells is determined by the MTT method. In this experiment, the cell proliferation inhibition rate in control group (not treated with any compound) is set as 0%.

CaES-17 = test: MTT solid tumor cell proliferation inhibition, CaES-17; type: cell-based, human; details: Homo sapiens, CaEs17; for inhibition at 16 µg/mL: CaES-17, 16 μg/mL compound, 72 h, read-out: IR (inhibition rate); for IC50: CaES-17, 72 h, MTT
Method: (§2) Human solid tumor cell lines: Hep-2 (laryngeal carcinoma), A549 (human lung cancer), CaES-17 (esophageal cancer cell), PC-3 (prostate cancer), CNE (nasopharyngeal carcinoma cell), and SK-OV-3 (ovarian cancer cell), all of which are purchased from China Center For Type Culture Collection; RKO (human colon adenocarcinoma cell), MGC 803 (human gastric cancer cell), MG63 (osteosarcoma) and U87 MG (malignant glioma cell), all of which are purchased from Fuxiang Bio-tech Co. Ltd., Shanghai, China; PANC-1 (pancreatic cancer), Hep G2 (human liver cancer cell), Becap37 (human breast cancer cell), and Hela (human cervical cancer cell), all of which are donated by Cancer Research Institute of Zhejiang University, China.
(§3) Obtaining 4000 well-growing human solid tumor cells and inoculating them into wells of a 96-well cell culture plate. The culture medium is DMEM High Glucose cell culture medium containing 10% fetal bovine serum. The plate is placed in a carbon dioxide cell incubator (5% CO2) at 37° C. for 24 hours for incubation. After being added with the amidated oleanolic acid derivatives of different concentrations and mixed uniformly, the plate is placed in a carbon dioxide cell incubator (5% CO2) at 37° C. for 72 hours for incubation. Then the relative number of the living cells is determined by the MTT method. In this experiment, the cell proliferation inhibition rate in control group (not treated with any compound) is set as 0%.

MGC803 = test: MTT solid tumor cell proliferation inhibition, MGC803; type: cell-based, human; details: for inhibition at 16 µg/mL / IC50: Homo sapiens, MGC-803; for inhibition at 16 µg/mL: MGC803, 16 μg/mL compound, 72 h, read-out: IR (inhibition rate); for IC50: MGC803, 72 h, MTT
Method: as §2, §3

Kasumi-1 = test: MTT leukemia cell proliferation inhibition, Kasumi-1; type: cell-based; details: Homo sapiens; for inhibition at 16 µg/mL: Kasumi-1, 16 μg/mL compound, 72 h, read-out: IR (inhibition rate); for IC50: Kasumi-1, 72 h, MTT
Text: (§4) Leukemia cell lines: leukemia cell lines: K562/adr (drug-resistant, chronic myeloid leukemia, CML), NB4 (acute promyelocytic leukemia, AML), Kasumi-1 (acute myeloid leukemia M2 type, AML-M2), Jurkat (acute lymphoblastic leukemia, ALL), all of which are donated by Cancer Research Institute of Zhejiang University, China; and H9 (acute lymphoblastic leukemia, ALL), which is purchased from China Center for Type Culture Collection (CCTCC).
(§5) Reagents: The standard sample of oleanolic acid (OA) is purchased from Hua Kang Pharmaceutical Raw Material Factory, Shifang City, Sichuan, China; and the amidated oleanolic acid derivatives are prepared according to the present invention.
as §1

U87 MG = test: MTT solid tumor cell proliferation inhibition, U87 MG; type: cell-based, human; details: Homo sapiens, U-87 MG, U87 MG, 72 h; for inhibition at 16 µg/mL: 16 μg/mL compound, read-out: IR (inhibition rate); for IC50: MTT
Method: as §2, §3

RKO = test: MTT solid tumor cell proliferation inhibition, RKO; type: cell-based; details: Homo sapiens, 72 h; for inhibition at 16 µg/mL: 16 μg/mL compound, read-out: IR (inhibition rate); for IC50: MTT
Method: as §2, §3

NB4 = test: MTT leukemia cell proliferation inhibition, NB4; type: cell-based; details: Homo sapiens, NB-4; for inhibition at 16 µg/mL: NB4, 16 μg/mL compound, 72 h, read-out: IR (inhibition rate); for IC50: NB4, 72 h, MTT
Text: as §4, §5, §1

CNE = test: MTT solid tumor cell proliferation inhibition, CNE; type: cell-based, human; details: for inhibition at 16 µg/mL / IC50: Homo sapiens, CNE, 72 h; for inhibition at 16 µg/mL: 16 μg/mL compound, read-out: IR (inhibition rate); for IC50: MTT
Method: as §2, §3

Hep-2 = test: MTT solid tumor cell proliferation inhibition, Hep-2; type: cell-based, human; details: Homo sapiens; for inhibition at 16 µg/mL: Hep-2, 16 μg/mL compound, 72 h, read-out: IR (inhibition rate); for IC50: Hep-2, 72 h, MTT
Method: as §2, §3

PC-3 = test: MTT solid tumor cell proliferation inhibition, PC-3; type: cell-based, human; details: Homo sapiens; for inhibition at 16 µg/mL: PC-3, 16 μg/mL compound, 72 h, read-out: IR (inhibition rate); for IC50: PC-3, 72 h, MTT
Method: as §2, §3

A549 = test: MTT solid tumor cell proliferation inhibition, A549; type: cell-based, human; details: Homo sapiens; for inhibition at 16 µg/mL: A549, 16 μg/mL compound, 72 h, read-out: IR (inhibition rate); for IC50: A549, 72 h, MTT
Method: as §2, §3

MG 63 = test: MTT solid tumor cell proliferation inhibition, MG 63; type: cell-based, human; details: for IC50: Homo sapiens, MG 63, 72 h, MTT; for IR (inhibition rate): MG 63, 16 μg/mL compound, 72 h
Method: as §2, §3

Hep G2 = test: MTT solid tumor cell proliferation inhibition, Hep G2; type: cell-based; details: Homo sapiens, HepG2; for inhibition at 16 µg/mL: Hep G2, 16 μg/mL compound, 72 h, read-out: IR (inhibition rate); for IC50: Hep G2, 72 h, MTT
Method: as §2, §3

SK-OV-3 = test: MTT solid tumor cell proliferation inhibition, SK-OV-3; type: cell-based, human; details: for inhibition at 16 µg/mL / IC50: Homo sapiens; for inhibition at 16 µg/mL: SK-OV-3, 16 μg/mL compound, 72 h, read-out: IR (inhibition rate); for IC50: SK-OV-3, 72 h, MTT
Method: as §2, §3

PANC-1 = test: MTT solid tumor cell proliferation inhibition, PANC-1; type: cell-based, human; details: for inhibition at 16 µg/mL / IC50: Homo sapiens; for inhibition at 16 µg/mL: PANC-1, 16 μg/mL compound, 72 h, read-out: IR (inhibition rate); for IC50: PANC-1, 72 h, MTT
Method: as §2, §3

H9 = test: MTT leukemia cell proliferation inhibition, H9; type: cell-based, human; details: for inhibition at 16 µg/mL / IC50: Homo sapiens; for inhibition at 16 µg/mL: H9, 16 μg/mL compound, 72 h, read-out: IR (inhibition rate); for IC50: H9, 72 h, MTT
Text: as §4, §5, §1

Hela = test: MTT solid tumor cell proliferation inhibition, Hela; type: cell-based, human; details: for inhibition at 16 µg/mL / IC50: Homo sapiens, Hela, 72 h; for inhibition at 16 µg/mL: 16 μg/mL compound, read-out: IR (inhibition rate); for IC50: MTT
Method: as §2, §3

K562/adr = test: MTT leukemia cell proliferation inhibition, K562/adr; type: cell-based; details: Homo sapiens, 72 h; for inhibition at 16 µg/mL: 16 μg/mL compound, read-out: IR (inhibition rate); for IC50: MTT
Text: as §4, §5, §1

Jurkat = test: MTT leukemia cell proliferation inhibition, Jurkat; type: cell-based; details: Homo sapiens, 72 h; for inhibition at 16 µg/mL: 16 μg/mL compound, read-out: IR (inhibition rate); for IC50: MTT
Text: as §4, §5, §1

Becap37 = test: MTT solid tumor cell proliferation inhibition, Becap37; type: cell-based; details: Homo sapiens; for inhibition at 16 µg/mL: Becap37, 16 μg/mL compound, 72 h, read-out: IR (inhibition rate); for IC50: Becap37, 72 h, MTT
Method: as §2, §3

## CC1(C)CC[C@]2(NC(=O)c3cccs3)CC[C@]3(C)C(=CC[C@@H]4[C@@]5(C)CC[C@H](O)C(C)(C)[C@@H]5CC[C@]43C)[C@@H]2C1 [BS-OA-098]
RPMI8226
  inhibition at 16 µg/mL: 97.6%
  IC50: 6.44 µg/mL (≈ 12 µM)
CaES-17
  inhibition at 16 µg/mL: 39.9%
  IC50: > 16 µg/mL
MGC803
  inhibition at 16 µg/mL: 46.3%
  IC50: 16 µg/mL (≈ 29.7 µM)
Kasumi-1
  inhibition at 16 µg/mL: 35.7%
  IC50: > 16 µg/mL
U87 MG
  inhibition at 16 µg/mL: 29.8%
  IC50: > 16 µg/mL
RKO
  inhibition at 16 µg/mL: 27%
  IC50: > 16 µg/mL
NB4
  inhibition at 16 µg/mL: 96.3%
  IC50: 8.22 µg/mL (≈ 15.3 µM)
CNE
  inhibition at 16 µg/mL: 35.8%
  IC50: > 16 µg/mL
Hep-2
  inhibition at 16 µg/mL: 19.6%
  IC50: > 16 µg/mL
PC-3
  inhibition at 16 µg/mL: 45.1%
  IC50: 17.4 µg/mL (≈ 32.4 µM)
A549
  inhibition at 16 µg/mL: 24.3%
  IC50: > 16 µg/mL
MG 63
  IC50: > 16 µg/mL
  IR (inhibition rate): 20.9%
Hep G2
  inhibition at 16 µg/mL: 28.4%
  IC50: > 16 µg/mL
SK-OV-3
  inhibition at 16 µg/mL: 53.5%
  IC50: 14.6 µg/mL (≈ 27.2 µM)
PANC-1
  inhibition at 16 µg/mL: 34.7%
  IC50: > 16 µg/mL
H9
  inhibition at 16 µg/mL: 62.4%
  IC50: 12.5 µg/mL (≈ 23.2 µM)
Hela
  inhibition at 16 µg/mL: 63.1%
  IC50: 14.2 µg/mL (≈ 26.3 µM)
K562/adr
  inhibition at 16 µg/mL: 81.9%
  IC50: 7.83 µg/mL (≈ 14.6 µM)
Jurkat
  inhibition at 16 µg/mL: 20.1%
  IC50: > 16 µg/mL
Becap37
  inhibition at 16 µg/mL: 28.6%
  IC50: > 16 µg/mL

## CC1(C)CC[C@]2(NC(=O)c3cccnc3Cl)CC[C@]3(C)C(=CC[C@@H]4[C@@]5(C)CC[C@H](O)C(C)(C)[C@@H]5CC[C@]43C)[C@@H]2C1 [BS-OA-096]
RPMI8226
  inhibition at 16 µg/mL: 96.9%
  IC50: 9.2 µg/mL (≈ 16.2 µM)
CaES-17
  inhibition at 16 µg/mL: 39.8%
  IC50: > 16 µg/mL
MGC803
  inhibition at 16 µg/mL: 70%
  IC50: 13.6 µg/mL (≈ 23.9 µM)
MGC803; MGC803 cells
  improvement of inhibition rate as compared with oleanolic acid: ~3 fold
Kasumi-1
  inhibition at 16 µg/mL: 33.6%
  IC50: > 16 µg/mL
U87 MG
  inhibition at 16 µg/mL: 38.5%
  IC50: > 16 µg/mL
RKO
  inhibition at 16 µg/mL: 59.4%
  IC50: 14.7 µg/mL (≈ 26 µM)
NB4
  inhibition at 16 µg/mL: 100%
  IC50: 11.2 µg/mL (≈ 19.7 µM)
CNE; CNE cells
  improvement of inhibition rate as compared with oleanolic acid: ~2 fold
CNE
  inhibition at 16 µg/mL: 63.9%
  IC50: 14 µg/mL (≈ 24.7 µM)
Hep-2
  inhibition at 16 µg/mL: 20.6%
  IC50: > 16 µg/mL
PC-3
  inhibition at 16 µg/mL: 48.1%
  IC50: 18.3 µg/mL (≈ 32.2 µM)
A549
  inhibition at 16 µg/mL: 18.7%
  IC50: > 16 µg/mL
MG 63
  IC50: 13.8 µg/mL (≈ 24.3 µM)
  IR (inhibition rate): 78.1%
Hep G2
  inhibition at 16 µg/mL: 40.1%
  IC50: 18.5 µg/mL (≈ 32.6 µM)
SK-OV-3
  inhibition at 16 µg/mL: 97%
  IC50: 10.1 µg/mL (≈ 17.8 µM)
SK-OV-3; SKOV-3 cells
  improvement of cell inhibition rate as compared with oleanolic acid: > 12 fold
PANC-1
  inhibition at 16 µg/mL: 59.1%
  IC50: 14.7 µg/mL (≈ 25.9 µM)
PANC-1; PANC-1 cells
  improvement of inhibition rate as compared with oleanolic acid: ~7 fold
H9; H9 cells
  improvement of cell inhibition rate as compared with oleanolic acid: ~4 fold
H9
  inhibition at 16 µg/mL: 84%
  IC50: 10.7 µg/mL (≈ 18.9 µM)
Hela; Hela cells
  improvement of inhibition rate as compared with oleanolic acid: ~4 fold
Hela
  inhibition at 16 µg/mL: 88.9%
  IC50: 9.43 µg/mL (≈ 16.6 µM)
K562/adr
  inhibition at 16 µg/mL: 81.9%
  IC50: 8.53 µg/mL (≈ 15 µM)
Jurkat
  inhibition at 16 µg/mL: 55.3%
  IC50: 15.3 µg/mL (≈ 27 µM)
Becap37
  inhibition at 16 µg/mL: 39.3%
  IC50: > 16 µg/mL
